The supplement of paper PMC10627819

Key:
[1] = tested on: B. subtilis 168; assay: Bliss interaction score (quartile over a dose matrix) (fitness difference); higher = more antagonism (negative = synergy)
Procedure, shortened: (§1)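 OD595 was read at entry into stationary phase and expressed relative to the robust mean of the no-drug wells on the same plate, capped at 1. The resulting ratio is the fitness value. The Bliss score, observed fitness minus product-based expected fitness with single-drug fitness inferred from combinations, is summarised by quartiles over technical, biological and donor/recipient replicates.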

[2] = tested on: S. aureus Newman; assay: as above
Procedure, shortened: as §1

[3] = tested on: S. pneumoniae D39V; assay: as above
Procedure, shortened: as §1

[4] = tested on: S. aureus DSM 20231; assay: as above
Procedure, shortened: as §1

[5] = tested on: S. aureus Newman; assay: fitness (endpoint OD595 vs no drug) (fraction); higher = more growth
Procedure, shortened: (§2)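 Bacterial growth was followed in 384-well plates seeded at OD595 0.01, with 30 µl per well, or 55 µl for S. pneumoniae, in TSB, LB Lennox or CY at 37 °C. OD595 was read every 30 min for 14 h, and each reading had the first reading subtracted as background. Fitness is the background-corrected optical density at entry into stationary phase divided by the robust mean of the no-drug control wells. This ratio is capped at 1.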

[6] = tested on: S. pneumoniae D39V; assay: as above
Procedure, shortened: as §2

[7] = tested on: S. aureus DSM 20231; assay: as above
Procedure, shortened: as §2
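Wherever Bliss interaction score (quartile over a dose matrix) is given: first quartile when negative (synergy) and third quartile when positive (antagonism).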

CO/N=C(\C(=O)N[C@@H]1C(=O)N2C(C(=O)[O-])=C(C[N+]3(C)CCCC3)CS[C@H]12)c1csc(N)n1 [Cefepime] + COc1c(N2C[C@@H]3CCCN[C@@H]3C2)c(F)cc2c(=O)c(C(=O)O)cn(C3CC3)c12 [Moxifloxacin]
Details	Bliss interaction score
[1]	0.0325
[2]	0.0732
[3]	-0.0484
[4]	-0.101

Details	fitness
[5], first compound 0.125 µg/mL, partner 0.0075 µg/mL	0.748
[5], first compound 0.125 µg/mL, partner 0.015 µg/mL	0.616
[5], first compound 0.25 µg/mL, partner 0.0075 µg/mL	0.738
[5], first compound 0.25 µg/mL, partner 0.015 µg/mL	0.615
[5], first compound 0.5 µg/mL, partner 0.0075 µg/mL	0.695
[6], first compound 0.007 µg/mL, partner 0.0312 µg/mL	0.146
[6], first compound 0.007 µg/mL, partner 0.0625 µg/mL	0.0456
[6], first compound 0.007 µg/mL, partner 0.125 µg/mL	0.0274
[6], first compound 0.0078 µg/mL, partner 0.005 µg/mL	≥ 1
[6], first compound 0.0078 µg/mL, partner 0.01 µg/mL	0.981
[6], first compound 0.0078 µg/mL, partner 0.02 µg/mL	≥ 1
[6], first compound 0.014 µg/mL, partner 0.0312 µg/mL	0.137
[6], first compound 0.014 µg/mL, partner 0.0625 µg/mL	0.0527
[6], first compound 0.014 µg/mL, partner 0.125 µg/mL	0.0539
[6], first compound 0.0155 µg/mL, partner 0.005 µg/mL	0.987
[6], first compound 0.0155 µg/mL, partner 0.01 µg/mL	0.971
[6], first compound 0.0155 µg/mL, partner 0.02 µg/mL	≥ 1
[6], first compound 0.028 µg/mL, partner 0.0312 µg/mL	0.077
[6], first compound 0.028 µg/mL, partner 0.0625 µg/mL	0.0286
[6], first compound 0.028 µg/mL, partner 0.125 µg/mL	0.0219
[6], first compound 0.031 µg/mL, partner 0.02 µg/mL	0.805
[7], first compound 0.125 µg/mL, partner 0.0075 µg/mL	0.664
[7], first compound 0.125 µg/mL, partner 0.015 µg/mL	0.681
[7], first compound 0.125 µg/mL, partner 0.03 µg/mL	0.616
[7], first compound 0.25 µg/mL, partner 0.0075 µg/mL	0.69
[7], first compound 0.25 µg/mL, partner 0.015 µg/mL	0.682
[7], first compound 0.25 µg/mL, partner 0.03 µg/mL	0.592
[7], first compound 0.5 µg/mL, partner 0.0075 µg/mL	0.766
[7], first compound 0.5 µg/mL, partner 0.015 µg/mL	0.641
[7], first compound 0.5 µg/mL, partner 0.03 µg/mL	0.565

fitness, [7], one replicate
Details	first compound 0.125 µg/mL	first compound 0.25 µg/mL	first compound 0.5 µg/mL
partner 0.06 µg/mL	0.645	0.622	0.579
partner 0.12 µg/mL	0.469	0.521	0.482

CO/N=C(\C(=O)N[C@@H]1C(=O)N2C(C(=O)[O-])=C(C[N+]3(C)CCCC3)CS[C@H]12)c1csc(N)n1 [Cefepime] + C[n+]1ccc(-c2cc[n+](C)cc2)cc1 [Paraquat]
Details	Bliss interaction score
[1]	-0.121
[2]	0.0489
[3]	0.0315
[4]	-0.0615

Details	fitness
[5], first compound 0.125 µg/mL, partner 1.25 µg/mL	0.901
[5], first compound 0.125 µg/mL, partner 2.5 µg/mL	0.916
[5], first compound 0.125 µg/mL, partner 5 µg/mL	0.898
[5], first compound 0.25 µg/mL, partner 1.25 µg/mL	0.851
[5], first compound 0.25 µg/mL, partner 2.5 µg/mL	0.854
[5], first compound 0.25 µg/mL, partner 5 µg/mL	0.846
[5], first compound 0.5 µg/mL, partner 1.25 µg/mL	0.768
[5], first compound 0.5 µg/mL, partner 2.5 µg/mL	0.773
[5], first compound 0.5 µg/mL, partner 5 µg/mL	0.839
[6], first compound 0.007 µg/mL, partner 1.5 µg/mL	0.99
[6], first compound 0.007 µg/mL, partner 3 µg/mL	0.996
[6], first compound 0.007 µg/mL, partner 6 µg/mL	0.971
[6], first compound 0.014 µg/mL, partner 1.5 µg/mL	≥ 1
[6], first compound 0.014 µg/mL, partner 3 µg/mL	≥ 1
[6], first compound 0.014 µg/mL, partner 6 µg/mL	≥ 1
[6], first compound 0.028 µg/mL, partner 1.5 µg/mL	0.934
[6], first compound 0.028 µg/mL, partner 3 µg/mL	0.917
[6], first compound 0.028 µg/mL, partner 6 µg/mL	0.869
[7], first compound 0.125 µg/mL, partner 1.25 µg/mL	0.9
[7], first compound 0.125 µg/mL, partner 2.5 µg/mL	0.888
[7], first compound 0.125 µg/mL, partner 5 µg/mL	0.874
[7], first compound 0.25 µg/mL, partner 1.25 µg/mL	0.889
[7], first compound 0.25 µg/mL, partner 2.5 µg/mL	0.876
[7], first compound 0.25 µg/mL, partner 5 µg/mL	0.821
[7], first compound 0.5 µg/mL, partner 2.5 µg/mL	0.853
[7], first compound 0.5 µg/mL, partner 5 µg/mL	0.837

fitness, [6], one replicate
Details	first compound 0.0078 µg/mL	first compound 0.0155 µg/mL	first compound 0.031 µg/mL
partner 1.5 µg/mL	0.994	0.985	0.957
partner 3 µg/mL	≥ 1	≥ 1	0.975
partner 6 µg/mL	≥ 1	≥ 1	≥ 1
